Measurements taken from PubChem BioAssay (NCI).
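Tested at 5 concentrations; 48 h exposure; 96-well plates; endpoints linearly interpolated, else capped at highest concentration. At the TGI there is no net growth.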

Assays:
Assay in all cases: DTP human tumour cell line panel, 48 h
786-0 renal = test system: 786-0 renal
A498 renal = test system: A498 renal
A549 NSCLC = test system: A549 NSCLC
ACHN renal = test system: ACHN renal
CAKI-1 renal = test system: CAKI-1 renal
CCRF-CEM leukemia = test system: CCRF-CEM leukemia
COLO 205 colon = test system: COLO 205 colon
DU-145 prostate = test system: DU-145 prostate
EKVX NSCLC = test system: EKVX NSCLC
HCC-2998 colon = test system: HCC-2998 colon
HCT-15 colon = test system: HCT-15 colon
HL-60(TB) leukemia = test system: HL-60(TB) leukemia
HOP-62 NSCLC = test system: HOP-62 NSCLC
HOP-92 NSCLC = test system: HOP-92 NSCLC
HS 578T breast = test system: HS 578T breast
HT29 colon = test system: HT29 colon
IGROV1 ovarian = test system: IGROV1 ovarian
K-562 leukemia = test system: K-562 leukemia
KM12 colon = test system: KM12 colon
LOX IMVI melanoma = test system: LOX IMVI melanoma
M14 melanoma = test system: M14 melanoma
MALME-3M melanoma = test system: MALME-3M melanoma
MCF7 breast = test system: MCF7 breast
MDA-MB-231 breast = test system: MDA-MB-231 breast
MDA-MB-435 = test system: MDA-MB-435
MDA-N = test system: MDA-N
MOLT-4 leukemia = test system: MOLT-4 leukemia
NCI-H226 lung = test system: NCI-H226 lung
NCI-H23 lung = test system: NCI-H23 lung
NCI-H460 lung = test system: NCI-H460 lung
NCI-H522 lung = test system: NCI-H522 lung
NCI/ADR-RES ovarian = test system: NCI/ADR-RES ovarian
OVCAR-3 ovarian = test system: OVCAR-3 ovarian
OVCAR-4 ovarian = test system: OVCAR-4 ovarian
OVCAR-5 ovarian = test system: OVCAR-5 ovarian
OVCAR-8 ovarian = test system: OVCAR-8 ovarian
PC-3 prostate = test system: PC-3 prostate
RPMI-8226 leukemia = test system: RPMI-8226 leukemia
RXF 393 renal = test system: RXF 393 renal
SF-268 CNS = test system: SF-268 CNS
SF-295 CNS = test system: SF-295 CNS
SF-539 CNS = test system: SF-539 CNS
SK-MEL-2 melanoma = test system: SK-MEL-2 melanoma
SK-MEL-28 melanoma = test system: SK-MEL-28 melanoma
SK-MEL-5 melanoma = test system: SK-MEL-5 melanoma
SK-OV-3 ovarian = test system: SK-OV-3 ovarian
SNB-19 CNS = test system: SNB-19 CNS
SNB-75 CNS = test system: SNB-75 CNS
SR leukemia = test system: SR leukemia
SW-620 colon = test system: SW-620 colon
T-47D breast = test system: T-47D breast
TK-10 renal = test system: TK-10 renal
U251 CNS = test system: U251 CNS
UACC-257 melanoma = test system: UACC-257 melanoma
UACC-62 melanoma = test system: UACC-62 melanoma
UO-31 renal = test system: UO-31 renal
BT-549 breast = test system: BT-549 breast
HCT-116 colon = test system: HCT-116 colon
SN12C renal = test system: SN12C renal

`O=C1CCC2(CC1CCS(=O)c1ccccc1)OCCO2` (stereo unspecified) was tested, and the TGI (786-0 renal) was greater than 100 µM, the TGI (A498 renal) was greater than 100 µM and the TGI (A549 NSCLC) was greater than 100 µM. For the same molecule, the TGI (ACHN renal) was greater than 100 µM, the TGI (CAKI-1 renal) was greater than 100 µM and the TGI (CCRF-CEM leukemia) was greater than 100 µM. It also gave a TGI (COLO 205 colon) greater than 100 µM, a TGI (DU-145 prostate) greater than 100 µM and a TGI (EKVX NSCLC) greater than 100 µM. For the same molecule, the TGI (HCC-2998 colon) was greater than 100 µM, the TGI (HCT-15 colon) was greater than 100 µM and the TGI (HL-60(TB) leukemia) was greater than 100 µM. The TGI (HOP-62 NSCLC) was greater than 100 µM, the TGI (HOP-92 NSCLC) was greater than 100 µM and the TGI (HS 578T breast) was greater than 100 µM. It also gave a TGI (HT29 colon) greater than 100 µM, a TGI (IGROV1 ovarian) greater than 100 µM and a TGI (K-562 leukemia) greater than 100 µM. The TGI (KM12 colon) was greater than 100 µM, the TGI (LOX IMVI melanoma) was greater than 100 µM and the TGI (M14 melanoma) was greater than 100 µM. For the same molecule, the TGI (MALME-3M melanoma) was greater than 100 µM, the TGI (MCF7 breast) was greater than 100 µM and the TGI (MDA-MB-231 breast) was greater than 100 µM. For the same molecule, the TGI (MDA-MB-435) was greater than 100 µM, the TGI (MDA-N) was greater than 100 µM and the TGI (MOLT-4 leukemia) was greater than 100 µM. The TGI (NCI-H226 lung) was greater than 100 µM, the TGI (NCI-H23 lung) was greater than 100 µM and the TGI (NCI-H460 lung) was greater than 100 µM. For the same molecule, the TGI (NCI-H522 lung) was greater than 100 µM, the TGI (NCI/ADR-RES ovarian) was greater than 100 µM and the TGI (OVCAR-3 ovarian) was greater than 100 µM. It also gave a TGI (OVCAR-4 ovarian) greater than 100 µM, a TGI (OVCAR-5 ovarian) greater than 100 µM and a TGI (OVCAR-8 ovarian) greater than 100 µM. It also gave a TGI (PC-3 prostate) greater than 100 µM, a TGI (RPMI-8226 leukemia) greater than 100 µM and a TGI (RXF 393 renal) greater than 100 µM. The TGI (SF-268 CNS) was greater than 100 µM, the TGI (SF-295 CNS) was greater than 100 µM and the TGI (SF-539 CNS) was greater than 100 µM. For the same molecule, the TGI (SK-MEL-2 melanoma) was greater than 100 µM, the TGI (SK-MEL-28 melanoma) was greater than 100 µM and the TGI (SK-MEL-5 melanoma) was greater than 100 µM. For the same molecule, the TGI (SK-OV-3 ovarian) was greater than 100 µM, the TGI (SNB-19 CNS) was greater than 100 µM and the TGI (SNB-75 CNS) was greater than 100 µM. It also gave a TGI (SR leukemia) greater than 100 µM, a TGI (SW-620 colon) greater than 100 µM and a TGI (T-47D breast) greater than 100 µM. The TGI (TK-10 renal) was greater than 100 µM, the TGI (U251 CNS) was greater than 100 µM and the TGI (UACC-257 melanoma) was greater than 100 µM. For the same molecule, the TGI (UACC-62 melanoma) was greater than 100 µM and the TGI (UO-31 renal) was greater than 100 µM.
Work on `COc1ccc(NC(=O)C(C#N)=C(SC)SC)cc1` yielded a TGI (786-0 renal) greater than 100 µM, a TGI (A498 renal) greater than 100 µM and a TGI (A549 NSCLC) greater than 100 µM. It also gave a TGI (ACHN renal) greater than 100 µM, a TGI (BT-549 breast) greater than 100 µM and a TGI (CAKI-1 renal) greater than 100 µM. It also gave a TGI (CCRF-CEM leukemia) greater than 100 µM, a TGI (COLO 205 colon) greater than 100 µM and a TGI (DU-145 prostate) greater than 100 µM. For the same molecule, the TGI (EKVX NSCLC) was greater than 100 µM, the TGI (HCC-2998 colon) was greater than 100 µM and the TGI (HCT-116 colon) was greater than 100 µM. For the same molecule, the TGI (HCT-15 colon) was greater than 100 µM, the TGI (HL-60(TB) leukemia) was greater than 100 µM and the TGI (HOP-62 NSCLC) was greater than 100 µM. For the same molecule, the TGI (HOP-92 NSCLC) was 55.6 µM, the TGI (HS 578T breast) was greater than 100 µM and the TGI (HT29 colon) was greater than 100 µM. It also gave a TGI (IGROV1 ovarian) greater than 100 µM, a TGI (K-562 leukemia) greater than 100 µM and a TGI (LOX IMVI melanoma) greater than 100 µM. The TGI (M14 melanoma) was greater than 100 µM, the TGI (MALME-3M melanoma) was greater than 100 µM and the TGI (MCF7 breast) was greater than 100 µM. For the same molecule, the TGI (MDA-MB-231 breast) was greater than 100 µM, the TGI (MDA-MB-435) was greater than 100 µM and the TGI (MDA-N) was greater than 100 µM. It also gave a TGI (MOLT-4 leukemia) greater than 100 µM, a TGI (NCI-H226 lung) greater than 100 µM and a TGI (NCI-H23 lung) greater than 100 µM. It also gave a TGI (NCI-H460 lung) greater than 100 µM, a TGI (NCI-H522 lung) greater than 100 µM and a TGI (OVCAR-3 ovarian) greater than 100 µM. For the same molecule, the TGI (OVCAR-4 ovarian) was greater than 100 µM, the TGI (OVCAR-5 ovarian) was greater than 100 µM and the TGI (PC-3 prostate) was greater than 100 µM. It also gave a TGI (RPMI-8226 leukemia) greater than 100 µM, a TGI (RXF 393 renal) greater than 100 µM and a TGI (SF-268 CNS) greater than 100 µM. For the same molecule, the TGI (SF-295 CNS) was greater than 100 µM, the TGI (SF-539 CNS) was greater than 100 µM and the TGI (SK-MEL-2 melanoma) was greater than 100 µM. The TGI (SK-MEL-28 melanoma) was greater than 100 µM, the TGI (SK-MEL-5 melanoma) was greater than 100 µM and the TGI (SK-OV-3 ovarian) was greater than 100 µM. It also gave a TGI (SN12C renal) greater than 100 µM, a TGI (SNB-19 CNS) greater than 100 µM and a TGI (SR leukemia) greater than 100 µM. It also gave a TGI (SW-620 colon) greater than 100 µM, a TGI (T-47D breast) greater than 100 µM and a TGI (TK-10 renal) greater than 100 µM. For the same molecule, the TGI (U251 CNS) was greater than 100 µM, the TGI (UACC-257 melanoma) was greater than 100 µM and the TGI (UACC-62 melanoma) was greater than 100 µM. The TGI (UO-31 renal) was greater than 100 µM.
